Consider six compounds from patent US20250186456A1, “PYRIMIDINE-FUSED CYCLIC COMPOUND AND PREPARATION METHOD AND USE THEREOF” (Genfleet Therapeutics (Shanghai) Inc., priority 2021, published 2025).

One may read the IC50 as the concentration needed to halve the response being measured.

Assay type in all cases: cell-based, human
Assay [1] concerns p-ERK in AGS cells (KRAS G12D mutation). The assay can be described thus: Cell p-ERK assay (HTRF, Advance ERK phospho-T202/Y204 kit). Particulars: Homo sapiens; AGS cells, 3 hours incubation with compound, HTRF; read-out: AGS p-ERK IC50. The method in brief:
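AGS cells (endogenous KRAS G12D) seeded at ~20000 cells/well overnight, then treated 3 h with 3.16-fold compound dilutions, 0.1% DMSO final. Lysates assayed for phospho-T202/Y204 ERK by HTRF after 4 h antibody incubation; inhibition vs DMSO and blank, IC50 by four-parameter fit.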
On the technique in general: Time-resolved FRET reads energy transfer from a long-lived donor to a nearby acceptor.

The next assay has as its system AGS cells (KRAS G12D). Briefly: Cell proliferation inhibition assay, 3D, CellTiter-Glo 3D, AGS. The note with it: Homo sapiens, 120 h, AGS 3D sphere model, 5 days incubation. The procedure, abridged:
(§1)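 Spheroids (800 AsPC-1 or 400 AGS cells/well; RPMI-1640 or F-12K with 10% FBS) formed overnight, then were dosed on day 2 with a 3.16-fold series at 0.1% DMSO. After 5 days, viability was read by CellTiter-Glo 3D luminescence, and IC50 came from four-parameter fits of inhibition versus DMSO control and medium blank.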

Assay [2] deals with AsPC-1 cells (KRAS G12D mutation). The assay can be described thus: Cell proliferation inhibition assay, 3D, CellTiter-Glo 3D, AsPC-1. Particulars: Homo sapiens, ASPC1, 120 h, AsPC-1 3D sphere model, 5 days incubation. The method in brief:
as §1
For orientation: ATP-based viability assays read luminescence as a measure of living cells.

Regarding `C#Cc1cccc2c(F)c(N)cc(-c3nc4c5c(nc(OCC67CC(=C)CN6CC(=C)C7)nc5c3F)N3C[C@H]5CC[C@H](N5)[C@H]3[C@H](C)O4)c12` [Example Z727, 4-((5S,5aS,6S,9R)-12-((2,6-dimethylenetetrahydro-1H-pyrrolizin-7a (5H)-yl)methoxy)-1-fluoro-5-methyl-5a,6,7,8,9,10-hexahydro-5H-4-oxa-3,10a, 11,13,14-pentaaza-6,9-methanonaphtho[1,8-ab]heptalene-2-yl)-5-ethynyl-1-fluoronaphthalen-2-amine], the IC50 in assay [1] stood at 0.00501 µM; in the assay with AGS cells (KRAS G12D) it was 0.0093 µM; in assay [2], 0.0123 µM.
With `C#Cc1cccc2cccc(-c3nc4c5c(nc(OCC67CC(=C)CN6C[C@H](F)C7)nc5c3F)N3C[C@H]5CC[C@H](N5)[C@H]3[C@H](C)O4)c12` (stereo partly drawn) [Example Z678, (5S,5aS,6S,9R)-2-(8-ethynylnaphthalen-1-yl)-1-fluoro-12-(((2R)-2-fluoro-6-methylenetetrahydro-1H-pyrrolizin-7a (5H)-yl)methoxy)-5-methyl-5a,6,7,8,9,10-hexahydro-5H-4-oxa-3,10a, 11, 13,14-pentaaza-6,9-methanonaphtho[1,8-ab]heptalene], the IC50 in assay [1] was 0.0124 µM; with AGS cells (KRAS G12D) it was 0.101 µM; in assay [2], 0.0735 µM.
With `C#Cc1cccc2cc(N)cc(-c3nc4c5c(nc(OCC6(CN7CCOCC7)CC6)nc5c3F)N3C[C@@H](C)NC[C@H]3[C@H](C)O4)c12` [Example Z709, 5-ethynyl-4-((5S,5aS,8R)-1-fluoro-5,8-dimethyl-11-((1-(morpholinomethyl)cyclopropyl)methoxy)-5,5a,6,7,8,9-hexahydro-4-oxa-3,7,9a,10,12-pentaazabenzo[4,5]cyclohepta[1,2,3-de]naphthalen-2-yl) naphthalen-2-amine], the IC50 in assay [1] amounted to 0.0122 µM; in the assay with AGS cells (KRAS G12D), 0.0868 µM; in assay [2] it was 0.117 µM.
For the compound `C#Cc1c(F)ccc2cc(O)cc(-c3nc4c5c(nc(OCC67CC(=C)CN6CC(=C)C7)nc5c3F)N3C[C@H]5CC[C@H](N5)[C@H]3CCO4)c12` [Example Z598], the results for the IC50 (in assay [1]; with AGS cells (KRAS G12D); in assay [2]) were 0.00068 µM, 0.00123 µM and 0.00555 µM, respectively.
For the compound `C#Cc1cccc2cc(N)cc(-c3nc4c5c(nc(OCC67CCCN6CC(F)(F)C7)nc5c3F)N3C[C@H]5CC[C@H](N5)[C@H]3[C@H](C)O4)c12` (stereo partly drawn) [Example Z706, 4-((5S,5aS,6S,9R)-12-((2,2-difluorotetrahydro-1H-pyrrolizin-7a (5H)-yl)methoxy)-1-fluoro-5-methyl-5a,6,7,8,9,10-hexahydro-5H-4-oxa-3,10a,11,13,14-pentaaza-6,9-methanonaphtho[1,8-ab]heptalen-2-yl)-5-ethynylnaphthalen-2-amine], the IC50 came to 0.00664 µM in assay [1], 0.026 µM in the assay with AGS cells (KRAS G12D) and 0.0379 µM in assay [2].
Regarding `C#Cc1c(F)ccc2cccc(-c3nc4c5c(nc(OCC67C[C@@H](F)CN6CCC7=C)nc5c3F)N3C[C@H]5CC[C@H](N5)[C@H]3[C@H](C)O4)c12` (stereo partly drawn) [Example Z675, (5S,5aS,6S,9R)-2-(8-ethynyl-7-fluoronaphthalen-1-yl)-1-fluoro-12-(((6R)-6-fluoro-1-methylenetetrahydro-1H-pyrrolizin-7a (5H)-yl)methoxy)-5-methyl-5a,6,7,8,9,10-hexahydro-5H-4-oxa-3,10a,11,13,14-pentaaza-6,9-methanonaphtho[1,8-ab]heptalene], the IC50 in assay [1] stood at 0.0111 µM; in the assay on AGS cells (KRAS G12D), 0.0312 µM; in assay [2] it was 0.0312 µM.
